# Tests used:
# [1] = tested on: tardive orofacial dyskinesia caused by haloperidol in rats; test: Study of tardive dyskinesia in rats treated with a neuroleptic (haloperidol) over a long period, count of tongue protrusions and mastication movements; type: in vivo, rat; conditions: for effect on rats suffering from tardive dyskinesia and tardive orofacial dyskinesia caused by haloperidol: oral 10 and 30 mg/kg, dose-dependent effectiveness
# Description: Principle of the In Vivo Test (Experimental Model with Rats): […] dyskinesia is a complication resulting from prolonged treatment with for example neuroleptics. It is characterized by repetitive, involuntary movements of the mouth, face and tongue. Long-term treatment with neuroleptics can lead to oromandibular dyskinesia, in particular it can lead to movements of mastication and protrusion of the tongue in rats. The principle of the test is to quantify the abnormal movements of the animals in a test cage during a determined time window (5 minutes). A neuroleptic, haloperidol (originating from Sigma®), is administered over a long period to rats using an Alzet® osmotic pump. This osmotic pump (reference 2ML4 Alzet®) is filled with a solution of haloperidol at 10 mg/ml. This pump is implanted subcutaneously in rats weighing between 150 g and 160 g. After anaesthesia of the rats with isoflurane, a small incision is made in the skin at the level of the scapulae to allow insertion of the pump. Then the incision is sutured. The pump makes it possible to continuously administer haloperidol to the rats at a dose of 2 mg/kg/day for 28 days. […] Before the treatment (t=0) with the compounds to be tested, the rats are placed individually in plastic test cages. […] Results: The rate of protrusion of the tongue and mastication movements is calculated statistically for each group of rats. […] The results presented were obtained with 8 tested animals.
# [2] = tested on: dyskinesias induced by L-DOPA in rats; test: Study of dyskinesias induced by L-DOPA (6-OHDA-lesioned dyskinetic rats), score of abnormal and involuntary movements; type: in vivo, rat; conditions: for effect on rats suffering from induced dyskinesia: oral 10 and 30 mg/kg, dose-dependent, statistically significant effectiveness
# Description: Principle of the In Vivo Test (Experimental Model with Dyskinetic Rats):
# An animal model is produced where the dyskinesia is induced in animals treated with L-Dopa (3-(3,4-dihydroxyphenyl)-L-alanine). First of all in order to cause a reduction in the level of endogenous dopamine at the level of the striatum, lesions are produced in the rats using 6-hydroxydopamine (6-OHDA). Following this injection of 6-OHDA, these animals become sensitive to the side-effects of L-dopa. In fact in order to remedy this endogenous dopamine deficiency, the rats receive an L-Dopa based treatment. […] The dyskinesia thus induced is evaluated by a statistical behaviour test.
# In fact the L-Dopa passes through the hematoencephalic barrier with difficulty and therefore it can be decarboxylated at the peripheral level.
# The study was carried out on young male rats. The rats are anaesthetized (chloral 400 mg/kg). Then they receive 2 stereotaxic injections of 6 μg of 6-hydroxydopamine in the left striatum using a 10 μl Hamilton microsyringe. The rats receive in fine 12 μg of 6-OHDA dissolved in 4 μl of 0.02% L-ascorbate. Four weeks later the lesion to the locus niger is produced in the rats. In order to quantify this lesion, an indirect measurement is used: the rotations induced by apomorphine (substance test). The animals receive a sub-cutaneous injection of 0.5 mg/kg of apomorphine and the right and left rotations of the animals are measured over 30 minutes. A net rotational asymmetry score is then determined. This score is expressed as the number of complete turns in the test cage/minute in the contralateral direction of the lesion.
# Six weeks after the 6-hydroxydopamine (6-OHDA) lesions, the selected rats receive a daily intraperitoneal injection of L-Dopa methylester at a dose of 20 mg/kg and benserazide at a dose of 15 mg/kg. The injections take place from week 6 to week 9. From week 10, the rats receive a more concentrated dose: each day they receive an intraperitoneal injection of L-Dopa methylester at a dose of 25 mg/kg and benserazide at a dose of 15 mg/kg. From week 11, the rats receive two daily injections of L-Dopa methylester at a dose of 15 mg/kg and benserazide at a dose of 15 mg/kg. During week 11, the rats are evaluated 3 times per week for their level of abnormal and involuntary movements in order to determine whether the administered doses are sufficient to cause a dyskinesia in these animals. The rats are observed individually from 30 minutes to 180 minutes after injection of the L-Dopa; they are observed every 30 minutes. The movements which are observed at that time are considered to be dyskinetic movements when they meet the following criteria: • the movements are induced by the L-Dopa; • the movements affect the side of the body in the contralateral direction of the lesion; • the movements are repetitive, involuntary and cannot be attributed to normal behaviour.
# The abnormal and involuntary movements are classified in 4 sub-types: • locomotive dyskinesia: increase in locomotion of the side contralateral to the lesion; • axial dystonia: deviation of the posture of the neck and of the upper part of the body; • oromandibular dyskinesia: stereotypical movements of the jaws and protrusion of the tongue; • dyskinesia of the anterior limbs: repetitive and rhythmic jerking of the anterior limbs accompanied by a dystonic posture and/or strong grasping movements of the paws.
# For each of these sub-types, the rats are marked on a scale of 0 to 4, knowing that: • 0=no movement, • 1=occasional movements, • 2=frequent movements, • 3=continuous movements but interrupted by a sensory distraction, • 4=continuous, acute movements, not interrupted by a sensory distraction.
# The compounds according to the invention are tested in order to determine their ability to modulate the effects of the L-Dopa.
# [3] = 30 mg/kg orally, 120 minutes after the administration of L-Dopa, control (water) 12 (compound 1) and 12.9 (compound 2)
# [4] = 30 mg/kg orally, after 180 minutes of treatment, reduced from 11.3 (compound 1) and from 13.8 (compound 2)
SMILES,"rate of protrusion of the tongue ([1]; 10 mg/kg orally, after 3 hours, counted for 5 minutes, reduced from 11.4)","rate of protrusion of the tongue ([1]; 30 mg/kg orally, after 3 hours, counted for 5 minutes, reduced from 15)","number of mastication movements ([1]; 30 mg/kg orally, after 3 hours, counted for 5 minutes, reduced from 35.5)",effect on rats suffering from tardive dyskinesia and tardive orofacial dyskinesia caused by haloperidol [1],"score of abnormal and involuntary movements (dyskinesia score, maximum 16 points) ([2]; 10 mg/kg orally, after 180 minutes of treatment, reduced from 13)","score of abnormal and involuntary movements (dyskinesia score, maximum 16 points) [2, 3]","score of abnormal and involuntary movements (dyskinesia score, maximum 16 points) [2, 4]",effect on rats suffering from induced dyskinesia [2],"score of chewing movements ([1]; 10 mg/kg orally, counted for 5 minutes, reduced from 30.3)","score of chewing movements ([1]; 30 mg/kg orally, counted for 5 minutes, reduced from 35.6)"
"C[C@@H](N)c1nc(-c2cc(C(C)(C)C)c(O)c(C(C)(C)C)c2)cs1.Cl [Compound 2, 4-{2-[(1R)-1-aminoethyl]-1,3-thiazol-4-yl}-2,6-di-tert-butylphenol hydrochloride]",5,6,23.7,anti-dyskinetic effect,10.6 points,9.7 points,9 points,anti-dyskinetic effect,,
"CC(C)(C)c1cc(-c2csc(CN)n2)cc(C(C)(C)C)c1O.Cl [Compound 1, 4-[2-(aminomethyl)-1,3-thiazol-4-yl]-2,6-di(tert-butyl)phenol hydrochloride or dihydrochloride]",,,,anti-dyskinetic effect,,10 points,9.6 points,anti-dyskinetic effect,21,11.9

# — patent publication US9006274B2, “Thiazole derivatives for treating dyskinesias caused by a chemical treatment” (Ipsen Pharma S.A.S., priority 2005, dated 2015)
